Data on 31 compounds can be found in patent publication US7037917B2, “HIV replication inhibiting pyrimidines” (Janssen Pharmaceutica, N.V., priority 1998, dated 2006).

pIC50: −log10 of the molar value. Counter-ions that a name gives are not always drawn. Bounds are passed on as bounds.

The subject of one series is mock-infected MT-4 cells. As to the kind of experiment: cytotoxicity in mock-infected MT-4 cells (MTT). The class given is cell-based.
Conditions: not given
Broadly, the CC50 is the concentration at which the toxic effect on the cells reaches its halfway point. A lower CC50 goes with greater toxicity to the cells. The compound `Cc1cc(C)c(Sc2nc(Nc3ccc(C#N)cc3)ncc2Cl)c(C)c1` [Compound 7] returned a CC50 above 100 µM.

As to `Cc1cc(Br)cc(C)c1Oc1nc(Nc2ccc(C#N)cc2)ncc1Cl` [Compound 8], the half-maximal cytotoxic concentration (CC50) is above 100 µM.

`Cc1cc(Br)cc(C)c1Nc1nc(Nc2ccc(C#N)cc2)ncc1Cl` [Compound 9] gave a CC50 of 1.2 µM.

For `N#Cc1ccc(Nc2ncc(Cl)c(Nc3c(F)cc(Br)cc3Br)n2)cc1` [Compound 11], half-maximal cytotoxicity (CC50) was put at 0.4 µM. This CC50 lies about 3-fold lower than the previous one.

With `Cc1cc(C(C)(C)C)cc(C)c1Nc1nc(Nc2ccc(C#N)cc2)ncc1Cl` [Compound 12], half-maximal cytotoxicity (CC50) was put at 48.5 µM.

`Cc1cc(C#N)cc(C)c1Nc1nc(Nc2ccc(C#N)cc2)ncc1Cl` [Compound 13] came in with a CC50 of 0.4 µM.

In turn, `Cc1cc(Br)cc(Cl)c1Oc1nc(Nc2ccc(C#N)cc2)ncc1Cl` [Compound 15] had a CC50 above 100 µM.

With `Cc1cc(Cl)cc(C)c1Oc1nc(Nc2ccc(C#N)cc2)ncc1Cl` [Compound 16], the 50% cytotoxic concentration (CC50) was above 100 µM.

`Cc1cc(C#N)cc(C)c1Oc1nc(Nc2ccc(C#N)cc2)ncc1Cl` [Compound 18]: the CC50 is above 10 µM.

`Cc1cc(C#N)cc(C)c1Oc1nc(N(COC(=O)C(C)(C)C)c2ccc(C#N)cc2)ncc1Br` [Compound 60] displayed a CC50 of 74.5 µM.

Tested on in a further series: not listed separately
Briefly: cytotoxicity in mock-infected MT-4 cells (MTT). Type of series: cell-based. As to conditions: human, mock-infected MT-4 cells; concentration reducing absorbance of mock-infected MT-4 control by 50%; MTT.
On to `Cc1cc(C)c(Nc2ncc(Cl)c(Nc3ccc(C#N)cc3)n2)c(C)c1` [Compound 1, 4-[[5-chloro-2-[(2,4,6-trimethylphenyl)amino]-4-pyrimidinyl]amino]benzonitrile], for which half-maximal cytotoxicity (CC50) was put at 10.9 µM.

As to `Cc1cc(C)c(Nc2ncc(Br)c(Nc3ccc(C#N)cc3)n2)c(C)c1` [Compound 2, 4-[[5-bromo-2-[(2,4,6-trimethylphenyl)amino]-4-pyrimidinyl]amino]benzonitrile], the CC50 was 82.6 µM.

Turning to `Cc1cc(C)c(Nc2nc(Nc3ccc(C#N)cc3)ncc2Br)c(C)c1` [Compound 3, 4-[[5-bromo-4-[(2,4,6-trimethylphenyl)amino]-2-pyrimidinyl]amino]benzonitrile], the CC50 came out at 4.4 µM.

Take `Cc1cc(C)c(Nc2nc(Nc3ccc(C#N)cc3)nc(N)c2Cl)c(C)c1.O=C(O)C(F)(F)F` [Compound 4, 4-[[4-amino-5-chloro-6-[(2,4,6-trimethylphenyl)amino]-2-pyrimidinyl]amino]benzonitrile trifluoroacetate (1:1)]: the midpoint of cytotoxicity, the CC50, lay at 10 µM.

On to `Cc1cc(C)c(Nc2nc(Nc3ccc(C#N)cc3)ncc2Cl)c(C)c1` [Compound 5, 4-[[5-chloro-4-[(2,4,6-trimethylphenyl)amino]-2-pyrimidinyl]amino]benzonitrile], for which the midpoint of cytotoxicity, the CC50, lay at 0.4 µM. This CC50 lies about 25-fold lower than the previous one.

The compound `Cc1cc(C)c(Oc2nc(Nc3ccc(C#N)cc3)ncc2Cl)c(C)c1` [Compound 6, 4-[[5-chloro-4-(2,4,6-trimethylphenoxy)-2-pyrimidinyl]amino]benzonitrile] showed a CC50 above 100 µM.

Consider `Cc1cc(Br)c(Nc2nc(Nc3ccc(C#N)cc3)ncc2Cl)c(Br)c1` [Compound 10, 4-[[5-chloro-4-[(2,6-dibromo-4-methylphenyl)amino]-2-pyrimidinyl]amino]benzonitrile], for which it took 0.4 µM to reach half-maximal cytotoxicity (CC50).

`Cc1cc(C#N)cc(C)c1Oc1nc(Nc2ccc(C#N)cc2)ncc1Br` [Compound 17, 4-[[5-bromo-4-(4-cyano-2,6-dimethylphenoxy)-2-pyrimidinyl]amino]benzonitrile] showed a half-maximal cytotoxic concentration (CC50) above 10 µM.

Compound `Cc1cc(C#N)cc(C)c1Oc1nc(Nc2ccc(C#N)cc2)nc(N)c1Br` [Compound 46, 4-[[4-amino-5-bromo-6-(4-cyano-2,6-dimethylphenyloxy)-2-pyrimidinyl]amino]benzonitrile] showed a CC50 above 200 µM.

As for `COC(=O)COCC(=O)N(c1ccc(C#N)cc1)c1ncc(Br)c(Oc2c(C)cc(C#N)cc2C)n1` [Compound 61], the CC50 was above 100 µM.

The subject of a further series is HIV-1. Briefly: microbe, parasite or virus in culture. As to conditions: Human immunodeficiency virus 1, MT4.
Method: A rapid, sensitive and automated assay procedure was used for the in vitro evaluation of anti-HIV agents. […] Inhibition of the HIV-induced cytopathic effect was used as the end point. […] The percent protection achieved by the compound in HIV-infected cells was calculated by the following formula:
[formula] whereby (ODT)HIV is the optical density measured with a given concentration of the test compound in HIV-infected cells; (ODC)HIV is the optical density measured for the control untreated HIV-infected cells; (ODC)MOCK is the optical density measured for the control untreated mock-infected cells; all optical density values were determined at 540 nm. […] The ratio of CC50 to IC50 was defined as the selectivity index (SI).
By pIC50 is commonly meant the negative decadic logarithm of the IC50, by convention in mol/L. Read a high pIC50 as a low IC50. `COC(=O)COCC(=O)N(c1ccc(C#N)cc1)c1ncc(Br)c(Oc2c(C)cc(C#N)cc2C)n1` [Compound 61] had a pIC50 of 8.70.

Tested on in another series: not given
Test: not given
Conditions: not given
As usually defined, the melting point is the temperature, or range, at which the solid turns liquid. As to `Cc1cc(C#N)cc(C)c1Oc1nc(Nc2ccc(C#N)cc2)nc(NCCN2CCCC2)c1Br.Cl`, the melting point lay within 208 to 210 °C.

`Cc1cc(C)c(Nc2nc(Nc3ccc(C#N)cc3)ncc2N)c(C)c1` (as salt: trifluoroacetate) [Compound 51, 4-[[5-amino-4-[(2,4,6-trimethylphenyl)amino]-2-pyrimidinyl]amino]benzonitrile]: the melting point was 224 to 225 °C.

Turning to `C=Cc1cnc(Nc2ccc(C#N)cc2)nc1Nc1c(C)cc(C)cc1C` (as salt: trifluoroacetate) [Compound 54, 4-[[5-ethenyl-4-[(2,4,6-trimethylphenyl)amino]-2-pyrimidinyl]amino]benzonitrile], the melting point lay in the range of 237 to 242 °C.

`Cc1cc(C)c(Nc2nc(Nc3ccc(C#N)cc3)nc(Cl)c2Br)c(C)c1` [Compound 41, 4-[[5-bromo-4-chloro-6-[(2,4,6-trimethylphenyl)amino]-2-pyrimidinyl]amino]benzonitrile] yielded a melting point of 220 to 221 °C.

For the compound `Cc1cc(C#N)cc(C)c1Nc1nc(Nc2ccc(C#N)cc2)nc(Cl)c1Br` [Compound 42, 4-[[5-bromo-4-chloro-6-[(4-cyano-2,6-dimethylphenyl)amino]-2-pyrimidinyl]amino]benzonitrile], the melting point is 259 to 260 °C.

Regarding `Cc1cc(C#N)cc(C)c1Oc1nc(Nc2ccc(C#N)cc2)nc(C)c1Br` [Compound 44, 4-[[5-bromo-4-(4-cyano-2,6-dimethylphenoxy)-6-methyl-2-pyrimidinyl]amino]benzonitrile], the melting point was 260 to 262 °C.

Compound `Cc1cc(C#N)cc(C)c1Nc1nc(Nc2ccc(C#N)cc2)ncc1Br` [Compound 45, 4-[[5-bromo-6-[(4-cyano-2,6-dimethylphenyl)amino]-2-pyrimidinyl]amino]benzonitrile] gave a melting point of 277 to 280 °C.

As to `CONc1nc(Nc2ccc(C#N)cc2)nc(Oc2c(C)cc(C#N)cc2C)c1Br` [Compound 48, 4-[[5-bromo-4-(4-cyano-2,6-dimethylphenoxy)-6-(methoxyamino)-2-pyrimidinyl]amino]benzonitrile], the melting point lay within 185 to 186 °C.

`Cc1cc(C#N)cc(C)c1Oc1nc(Nc2ccc(C#N)cc2)ncc1N` [Compound 50, 4-[[5-amino-4-(4-cyano-2,6-dimethylphenoxy)-2-pyrimidinyl]amino]benzonitrile]: the melting point was above 300 °C.

With `C#Cc1cnc(Nc2ccc(C#N)cc2)nc1Nc1c(C)cc(C)cc1C` [Compound 52, 4-[[5-ethynyl-4-[(2,4,6-trimethylphenyl)amino]-2-pyrimidinyl]amino]benzonitrile], the melting point lay in the range of 165 to 175 °C.

In turn, `Cc1cc(C)c(Nc2nc(Nc3ccc(C#N)cc3)ncc2-c2ccccc2)c(C)c1` [Compound 53, 4-[[5-phenyl-4-[(2,4,6-trimethylphenyl)amino]-2-pyrimidinyl]amino]benzonitrile] yielded a melting point of 209 to 214 °C.

The next series deals with HIV-1.
Test: not given
As to conditions: dose achieving 50% protection of HIV-infected MT-4 cells against cytopathic effect; MTT, OD 540 nm.
`Cc1cc(C#N)cc(C)c1Oc1nc(N(COC(=O)C(C)(C)C)c2ccc(C#N)cc2)ncc1Br` [Compound 60] showed a negative logarithm of the IC50 (pIC50) of 8.70.

The same series, now with this note: ratio of CC50 to IC50.
As to `COC(=O)COCC(=O)N(c1ccc(C#N)cc1)c1ncc(Br)c(Oc2c(C)cc(C#N)cc2C)n1` [Compound 61], the “SI (selectivity index)” value was above 52631.
